Experimental data published in patent US10751288B2, “Dry processed surface coated engineering excipients” (New Jersey Institute of Technology, priority 2016, dated 2020).
Read-outs that look alike come from different tables or passages of the source.

Tests used:
[1] = Particle size distribution by laser diffraction (Rodos/Helos); type: physicochemical; details: for median particle size (D50): starting materials
Method: Unless noted otherwise, particle size distribution provided herein is volume based particle size distribution was measured by a laser diffraction particle analyzer (Rodos/Helos system, Sympatec, NJ). Size statistics in terms of d10, d50 and d90 are reported, which are the values of the particle diameter at 10%, 50% and 90% respectively in the cumulative volumetric particle size distribution. In the Rodos/Helos system, the Rodos device works by venturi principle to disperse the powder, and the Helos unit uses laser diffraction principles of Fraunhofer Enhanced Evaluation (FREE) and Mie Extended Evaluation (MIEE) theories of light scattering to determine the particle size. Size statistics of d10, d50 and d90 at dispersion pressure of 0.1 bar are reported utilizing the FREE theory, the details for which can be found in Han et al. “Passivation of high surface energy sites of milled ibuprofen crystals via dry coating,” Journal of Pharmaceutical Sciences, Vol. 102(7), 1-15 (2013) and Jallo et al. “Improvement of flow and bulk density of pharmaceutical powders using surface modification,” International Journal of Pharmaceutics, 423 213-225 (2012).

[2] = Conditioned bulk density, Freeman FT4 powder tester; type: physicochemical; details: Example 20, APIs alone
Method: Unless otherwise noted, bulk density and flowability, i.e., flow function coefficient (FFC), as provided herein is obtained using a Freeman FT4 powder tester (Freeman Technologies Ltd., Worcestershire, UK), where the bulk density and the flow function coefficient (FFC) were defined as the ratio of consolidation stress to the unconfined yield stress. The FFC was evaluated from a shear test under the consolidation pressure of 3 kPa. Detailed procedures for both may be found in Freeman et al., Measuring the flow properties of consolidated, conditioned and aerated powders—A comparative study using a powder rheometer and a rotational shear cell. […]
Bulk density was measured through a standard FT4 testing procedure that first conditions the powder to yield very repeatable results for the bulk density as discussed in the detailed procedures of Freeman, et al. mentioned above. […] The conditioned bulk density was measured by loading the powder samples into the 25 ml split vessel above the minimum fill level. After a conditioning cycle was performed the vessel was split to remove the top portion of the powder; the density was determined from the mass of the remaining powder in the 25 ml vessel.
In addition to measuring the porosity of the tablets, the porosity of a powder sample, and its complement, packing fraction can be also determined as follows. […]

[3] = Flow function coefficient (FFC), FT4 shear test at 3 kPa; type: physicochemical; details: Example 20, APIs alone
[4] = from Huang et al., 2015; cited from earlier work
[5] = from Huang et al., 2015; cited from earlier work; remark: listed apart in the source
[6] = True (apparent particle) density by helium pycnometer; type: physicochemical; details: Table 1
Method: First, the apparent particle density, […]app, for each powder (also referred to as the gas pycnometric and true density of particles) was determined using a helium multipycnometer (Model MVP-6DC, Quantachrome instruments, FL, 33426, USA; repeated five time to get an average). After this is determined, the porosity of each tablet (ε) was calculated from the apparent particle density (ρapp) and the diameter (D), thickness (t) and weight (w) of the tablets using the following equation. All quantities are in SI units.

[7] = as-received commercial materials, Table 1

Row | median particle size (D50) [1] [microns] | bulk density [2] [g/mL] | FFC [3] | Particle Size D10 [1, 7] [μm] | Particle Size D50 [1, 7] [μm] | Particle Size D90 [1, 7] [μm] | True Density [6] [g/mL] | Compound | FFC [4] | bulk density [5]
1 | 217 | 0.896 | 4.67 | – | – | – | – | O=C1O[C@H]([C@@H](O)CO)C(O)=C1O [Ascorbic Acid] | – | –
2 | 58 | – | – | – | – | – | – | CC(C)Cc1ccc(C(C)C(=O)O)cc1 (centres unmarked) [Ibuprofen 50] | – | –
3 | – | 0.206 | – | 2 | 10 | 37 | 1.29 | CC(=O)Nc1ccc(O)cc1 [Micronized APAP, micronized acetaminophen] | about 2 | about 0.2 g/mL
